In patent publication US10988434B2, “Fragrance mixture” (SYMRISE AG, priority 2016, dated 2021):

Assay: Storage stability under drastic conditions
Format: physicochemical
Settings: 60° C. and 5 bar pressure
Method: Example 15: Stability Studies
Mesaconic acid diethyl ester (MSDEE) was stored alone and as a component of various formulations for 24 and 72 hours respectively under drastic conditions at 60° C. and 5 bar pressure. The remaining amount of active substance was then determined.

Storage stability: remaining amount of active substance (MSDEE) After 24 h (24 h): 98%
Storage stability: remaining amount of active substance (MSDEE) After 72 h (72 h): 98%
Compound: CCOC(=O)/C=C(\C)C(=O)OCC [Mesaconic acid diethyl ester, (E)-2-methyl-but-2-endicarboxylic acid diethyl ester]
